Four molecules from patent US20060148714A1, “Therapeutic peptide-based constructs” (priority 1999, published 2006) can be followed below.

Converted amounts (≈) assume the structure as drawn. Where a SMILES comes first, the peptide text is derived from it. Where no end group is shown, it is not given here. [ ]: non-standard residue; d: D form. The star is where a group is joined. 2‑biphenylenecarbonyl = O=C(c1ccc2c(c1)-c1ccccc1-2)*; d1Nal = N[C@H](Cc1cccc2ccccc12)C(=O)O

In general, % Inhibition refers to the relative decrease from the control value, in per cent. For orientation: IC50 means the concentration at which inhibition is half-maximal.

Series [1] deals with Factor Xa neutralization by ATIII/heparin complexes. The experiment in a line: Chromostrate heparin anti-Factor Xa assay (heparin neutralization). As to conditions: absorbance at 405 nm. In kind it is biochemical. As for the experimental part: A Chromostrate™ assay was used to determine the effect of peptide-based constructs, including derivatized constructs, and the effect protamine sulfate (as a positive control) on Factor Xa neutralization by ATIII/heparin complexes. The assay was conducted using a Chromostrate™ heparin anti-Factor Xa assay kit (Organon Teknika Corp., Durham, N.C.). Heparin concentration was varied so that a heparin standard curve was generated. The assay measured the potentiating effect of heparin on anti-Xa activity in vitro. Solution containing heparin is incubated in the presence of ATIII with an excess of Factor Xa, forming an ATIII-Heparin-Xa complex. The remaining Xa catalyzes the release of p-nitroaniline (pNA) from the chromogenic substrate. The release of p-nitroaniline is measured at 405 nm. The absorbance obtained in inversely porportional to the concentration of heparin in the sample.
Reagents for the assay are prepared as follows. Heparin, peptide-based constructs and protamine sulfate stocks are made in saline. Stock solutions are approximately 1 mg/mL=1 μg/μL. Factor Xa reagent and substrate reagent are reconstituted with 2.0 mL purified water. Antithrombin III (ATIII) reagent is reconstituted with 1.0 mL purified water. The assay is performed in 96 well microtiter plates. Assay components are added to the microtiter wells as follows: 12.5 μl of heparin (from 0 to 10 U/mL), 25 μl of construct or protamine sulfate, 12.5 μL of ATIII (0.5 PEU/mL), 25 μL of bovine Factor Xa (14 nKat/mL), 25 μL substrate (3 μmoles/mL). The reaction is allowed to proceed for 20 minutes and then 25 μL of 0.1 M acetic acid is added. The color reaction is quantitated on a microplate reader at 405 nm. Constructs that neutralize heparin show an increase in the absorbance at 405 nm. Protamine is used as a positive control and its activity is designated as 100%. The percent (%) heparin neutralization for each peptide construct is calculated relative to the neutralization by protamine (100%), and shown in Table IV.

A short description of series [2]: Behaviour in 1 mg/ml stock solution. As to conditions: no IC50 given. The series is classed as physicochemical. The arrangement: key: b: precipitated in 1 mg/ml stock solution.
The test system of series [3] is human umbilical vein endothelial cells (HUVEC). The series is classed as cell-based. The method, then: Briefly, human umbilical vein endothelial cells (HUVEC) were cultured in EGM-2 medium (Clonetics Corp., San Diego, Calif.), harvested and plated onto a 96-well culture plate. After 24 hours of quiescence, the cells were co-cultured with various peptide-based constricts in the presence of growth factors for 72 hours to test their activity. Cell proliferation was quantitated by tritiated thymidine incorporation into DNA and was expressed in counts per minute (cpm).
Details of the experimental procedures were as follows: HUVEC cells were cultured in EGM-2 media from Clonetics Corp., a subsidiary of BioWhittaker, Inc., San Diego, Calif. [EGM-2 is Endothelial Cell Basal Medium-2 (EMB-2) supplemented with growth factors (hFGF-B, VEGF, IGF-1, hEGF) ascorbic acid, heparin, GA-1000 and 2% FBS), in T75 flasks until confluent (˜4-7 days). Cells were harvested by trypsinizing the cells using 0.025% trypsin/EDTA for 5 minutes. To stop the reaction, 2-5% FBS was added. The cells were centrifuged and washed 3 times using Hank's Balanced Salt Solution (HBSS) or Dulbecco's Phosphate Buffered Saline D-PBS. The pellet was then resuspended in EBM-2 supplemented with 0.1% FBS and GA-1000 was used. The cells were counted and a cell suspension was prepared at 2×10^5/mL in EBM-2 with 0.1% FBS; cells were dispensed into a 96-well flat bottomed culture plate at 0.1 mL/well (total: ˜20,000 cells/well in 0.1% FBS-EBM-2). Incubation continued at 37° C. in 5% CO2 for 20-24 hours. The next day peptide-based constructs were prepared for testing in a 96 well plate. The supernatant was aspirated from the cell-well, replaced with EBM-2 or the testing reagent at 20 μL/well. Then, 180 μL/well of 1.12% FBS-GFS were added to make a final concentration of 1% FBS-GFS in EBM-2. This aspiration and addition was done well-by-well. ^3H-thymidine (100 μCi/mL) was added at 10 μL/well (1 μCi/well, final). Incubation continued at 37° C., 5% CO2 for 72 hours. To harvest the plate, the supernatant was aspirated off from the cell-well and then 75 μL-100 μL/well of 0.025% trypsin-EDTA was added. After incubation for 8-10 minutes at room temperature in the hood, the cells were checked and 100 μL/well of 2-5% FBS-PBS was added to stop the reaction. The plate was then harvested, dried and counted using an Inotech cell harvester (Inotech Biosystems, INB-384, Sample Processing and Filter Counting System, Lansing, Mich.).

Series [4] has as its system bFGF-induced angiogenesis. Nature of the series: In vivo Matrigel angiogenesis assay (hemoglobin content of excised gel). As to conditions: 10 μg peptide construct per gel; hemoglobin of gel excised ten days after s.c. injection; C57BL/6J mice. As for the experimental part:
For these experiments, peptide-based constructs according to the invention were assayed for their ability to inhibit heparin-induced angiogenesis in vivo in mice. Basement membrane matrix (Matrigel®, Becton Dickinson Labware, Mountain View, Calif.) was thawed and maintained at 4° C. and angiogenic factors were added to the gel in the liquid state generally as described in Passaniti et al., 1992, Lab. Invest. 67: 519-528. Heparin sodium (Sigma, St. Louis, Mo.) was dissolved in sterile PBS to various concentrations ranging from 1,250-10,000 U/mL, and used in these experiments at 8,000 U/mL. Human recombinant basic fibroblast growth factor (bFGF; Sigma) was reconstituted into 1. % BSA in PBS to 25 μg/mL. A volume of 2.5 μL dissolved heparin solution and 4.0 μL recombinant bFGF were added to 0.5 mL Matrigel® mixture per mouse injection. Peptide-based constructs were added to this Matrigel® mixture at varying concentrations ranging from 0.5 to 50 μg/mL (final concentration) in 10 μL/0.5 mL Matrigel® aliquot per experimental animal. Ten μL sterile PBS was substituted for peptide-based constructs in Matrigel® aliquots injected into control animals.
Female C57BL/6J mice (Jackson Laboratory, Bar Barbor, Me.) at 6-8 weeks of age (maintained under NIH guidelines) were injected subcutaneously down the dorsal midline with 0.5 mL aliquots of Matrigel® prepared as described above. Ten days after injection, the Matrigel® gels were excised and placed in Drabkin's reagent (Sigma). Total protein and hemoglobin content can be determined for the gels stored in Drabkin's reagent after mechanical homogenization of the gels. Hemoglobin concentration was measured using Sigma Procedure #525 and reagents supplied by Sigma (St. Louis, Mo.) to be used with this procedure. If desired, total protein levels are determined using a microplate assay that is commercially embodied in a kit (DC Protein Assay, Bio-Rad, Richmond, Calif.).
Gels to be used for histological staining are formalin-fixed immediately after excision from the animals rather than being placed in Drabkin's reagent. Formalin-fixed gels are embedded in Tissue-Tek O.C.T. compound (Miles, Inc., Elkhart, Ind.) for frozen sectioning. Slides of frozen sections are stained with hematoxylin and eosin (as described by Humason, 1979, Animal Tissue Techniques, 4th Ed. W.H. Feeman & Co., San Francisco, Calif., Ch. 9, pp. 111-131). The effect of peptides are detected by microscopic examination of frozen stained sections for inhibition of angiogenesis relative to Matrigel® gel slices prepared without added peptides. The extent of angiogenesis inhibition is quantitated using the normalized amounts of hemoglobin found in BPI peptide-containing gel slices.
Data are presented as the means of triplicate determinations of hemoglobin concentrations from the excised gel (ISEM) with ten mice per group.

In series [5] the test system is LPS. The experiment in a line: RAW cell assay of LPS neutralization. The series is classed as cell-based.
For series [6], the system named is E. coli (J5 and 0111 B4), Staphylococcus aureus and Candida albicans. The experiment in a line: Broth and/or radial diffusion antimicrobial assays. In kind it is cell-based. The text has this:
Assays useful for testing a variety of biological activities of BPI protein products, including BPI-derived peptides, are described in co-owned U.S. Pat. Nos. 5,733,872; 5,763,567; 5,652,332; and 5,856,438 and corresponding PCT Publication Nos. WO 94/20532 (PCT/US94/02465) and WO 95/19372 (PCT/US94/10427) and U.S. Pat. No. 5,858,974 and corresponding PCT Publications Nos. WO 96/08509 (PCT/US95/09262) and WO 97/04008 (PCT/US96/03845), incorporated herein by reference. These activities include antimicrobial (including antibacterial and antifungal), LPS binding, LPS neutralization and additional assays of heparin binding as well as heparin neutralization.

Series [7] deals with retinal endothelial cells. The experiment in a line: Retinal endothelial cell growth stimulated by VEGF (DNA content). As to conditions: 5 μg/mL and 15 μg/mL. The series is classed as cell-based, bovine. The method, then: In these experiments, peptide-based constructs are tested for their activity on the action of VEGF, bFGF, IGF-1 and conditioned media (hypoxia and hyperglycemia) on the in vitro growth and migration of retinal pigmented epithelial cells (RPE), retinal microvessel pericytes, and retinal endothelial cells. Effects are evaluated on gene expression under hypoxic or […] conditions. In additional experiments, the effects of such constructs are characterized in vivo on the neovascular responses to hyperoxia in the retina of the neonatal mouse.
For the in vitro culture experiments, retinal microvessel pericytes, retinal endothelial cells, and retinal pigmented epithelial cells (RPE) are cultured from bovine retina. Dose responses and time course for growth and migration as stimulated by VEGF, bFGF, and IGF-1 are performed. For example, retinal endothelial cell growth as stimulated by VEGF was inhibited with 5 μg/mL and 15 μg/mL XMP.679 as measured by DNA content (ng/cell well). […] When the dose responses of these growth factors and conditioned media are determined, the effect of peptide-based constructs independently, and in combination with the growth factors described above, are tested in growth and migration assays.

For the molecule “2-biphenylenecarbonyl-k-l-f-r-(naph-a)-q-a-k ({2‑biphenylenecarbonyl}-[dK][dL][dF][dR][dNal][dQ][dA][dK]; not fully specified; printed as 2-biphenylenecarbonyl-k-l-f-r-(naph-a)-q-a-k) [XMP.699]”, in series [1], the “Assay A: percent heparin neutralization relative to protamine (100%)” value was 45% and the “Assay B: percent heparin neutralization relative to protamine (100%)” value amounted to 23%. The “precipitated in 1 mg/ml stock solution” value in series [2] is “b”.

Turning to `CC[C@@H](C)[C@@H](NC(=O)[C@@H](CO)NC(=O)CNC(=O)[C@@H](CCCCN)NC(=O)[C@@H](Cc1cccc2ccccc12)NC(=O)[C@@H](CCCCN)NC(=O)[C@@H](C)NC(=O)[C@@H](CCC(N)=O)NC(=O)[C@@H](Cc1cccc2ccccc12)NC(=O)[C@@H](CCCNC(=N)N)NC(=O)[C@@H](Cc1ccccc1)NC(=O)[C@@H](CC(C)C)NC(=O)[C@H](N)CCCCN)C(=O)N[C@H](CCCCN)C(N)=O` [XMP.624, k-l-f-r-(naph-a)-q-a-k-(naph-a)-k-g-s-i-k] (H-[dK][dL][dF][dR][d1Nal][dQ][dA][dK][d1Nal][dK]G[dS][dI][dK]-NH2), in series [3] (HUVEC proliferation, purified constructs, said to be comparable to Table II (μg/mL)), the “IC50 values, additional assays” value was found to be 4.9 ±0.5. Further, the “% Inhibition” value in series [4] is given as 51.9%. In series [1], the “Assay A: percent heparin neutralization relative to protamine (100%)” value was determined as 131% and the “Assay B: percent heparin neutralization relative to protamine (100%)” value came out at 94%. Also, in series [5], the LPS neutralization activity entry is recorded as “showed activity”.

In the case of `CC(C)C[C@@H](NC(=O)[C@H](N)CCCCN)C(=O)N[C@H](Cc1ccccc1)C(=O)N[C@H](CCCNC(=N)N)C(=O)N[C@H](Cc1cccc2ccccc12)C(=O)N[C@H](CCC(N)=O)C(=O)N[C@H](C)C(=O)N[C@H](CCCCN)C(=O)N[C@H](Cc1cccc2ccccc12)C(N)=O` [XMP.629, k-l-f-r-(naph-a)-q-a-k-(naph-a)] (H-[dK][dL][dF][dR][d1Nal][dQ][dA][dK][d1Nal]-NH2; N-terminus assumed), the “% Inhibition” value in series [4] is reported as 30.8%. Moreover, in series [1], the “Assay A: percent heparin neutralization relative to protamine (100%)” value is reported as 69% and the “Assay B: percent heparin neutralization relative to protamine (100%)” value was 49%. Moreover, the antimicrobial activity entry in series [6] is on record as “highest antimicrobial activities”. Besides, in series [5], the LPS neutralization activity result is “showed activity”.

Regarding `CC(C)C[C@@H](NC(=O)[C@H](N)CCCCN)C(=O)N[C@H](Cc1ccccc1)C(=O)N[C@H](CCCCN)C(=O)N[C@H](Cc1cccc2ccccc12)C(=O)N[C@H](CCC(N)=O)C(=O)N[C@H](C)C(=O)N[C@H](CCCCN)C(=O)N[C@H](Cc1cccc2ccccc12)C(=O)N[C@H](CCCCN)C(=O)NCC(N)=O` [XMP.679, k-l-f-k-(naph-a)-q-a-k-(naph-a)-k-g] (H-[dK][dL][dF][dK][d1Nal][dQ][dA][dK][d1Nal][dK]G-NH2; N-terminus assumed), the half-inhibitory concentration (IC50) in series [3] (72 h) came to 6.3 ± 0.9 mg/L (≈ 4.37 µM). For the same molecule, in series [1], the “Assay A: percent heparin neutralization relative to protamine (100%)” value is reported as 96% and the “Assay B: percent heparin neutralization relative to protamine (100%)” value is 94%. In series [7], the “cell growth by DNA content in treated VEGF-stimulated cells versus unstimulated cells” value is reported as “comparable with that of cells not stimulated by VEGF” and the “retinal endothelial cell growth as stimulated by VEGF, measured by DNA content (ng/cell well)” value is “inhibited”. In series [6], the antimicrobial activity entry is on record as “highest antimicrobial activities”.
